Read-outs that look alike come from different tables or passages of the source.
Key:
[1] = test system: sciatic nerve-tibialis anterior muscle preparations; assay: Antagonism of relaxant-induced neuromuscular block in vivo, rat sciatic nerve-tibialis anterior muscle; parameters: species or system male Sprague-Dawley rats; settings: for ED50: Rattus norvegicus, iv, read-out: ED 50 of Antagonists, In Vivo; for ED50 / ED 50 of Antagonists, In Vivo: i.v., means + SEM of 4 experiments, dose raising twitch tension to 50% of control in >90% steady state block; for Relative Molar Potency, In Vivo: 4-Aminopyridine = 1.0
From the text: (§1) In in vitro tests to determine neuromuscular potency, phrenic nerve-hemidiaphragm preparations from male Sprague-Dawley rats were suspended in modified Krebs solution. In vivo experiments focused on the sciatic nerve-tibialis anterior muscle preparations in male Sprague-Dawleyrats. In each case, stimulation of nerves was accomplished via bipolar platinum electrodes, with supramaximal impulses of 0.2 msec duration at 0.1 HZ, and the isometric twitches were continuously recorded. Greater than 90 % steady state neuromuscular block was achieved either by addition of appropriate concentrations (in vitro) or continuous i.v. infusions (in vivo) of either d-tubocurarine or pancuronium. Antagonism of the induced neuromuscular block was accomplished by the addition of increments of 4-AP, 3,4-DAP, LF-10 or LF-14.
(§2) **The concentration in vitro or the i.v. dose that will increase twitch
(§3) tension to 50% of control in the presence of the concentration or dose of
(§4) muscle relaxant that caused a >90% steady state block.

[2] = test system: phrenic nerve-hemidiaphragm preparations; assay: Antagonism of relaxant-induced neuromuscular block in vitro, rat phrenic nerve-hemidiaphragm; type: cell-based, male Sprague-Dawley rats; parameters: ED 50 of Antagonists, In Vitro: unit not given here; settings: for Relative Molar Potency, In Vitro: 4-Aminopyridine = 1.0; for ED 50 of Antagonists, In Vitro: means + SEM of 4 experiments, concentration raising twitch tension to 50% of control in >90% steady state block
From the text: as §1, §2, §3, §4

central nervous system = assay: Central nervous system stimulatory effects: pentobarbital-induced loss of righting reflex (LRR); type: in vivo, male Sprague-Dawley rats; settings: for Loss of righting reflex, Onset / Loss of righting reflex, Duration: with 35 mg/kg pentobarbital s.c., LF-10, LF-14 1.1 mg/kg, 4-AP, 3,4-DAP 1.5 mg/kg, mean; for Loss of righting reflex, Onset: control 11.4; for Loss of righting reflex, Duration: control 71.9; for effect on pentobarbital induced LRR / barbiturate CNS effects (in words): with pentobarbital 35 mg/kg s.c.
Experimental: Tests were conducted to determine the stimulatory effects of the compounds of the present invention upon the central nervous system. Male Sprague-Dawley rats were injected subcutaneously with 35 mg/kg of pentobarbital alone, or together with 1.1 mg/kg of LF-10 or LF-14, or 1.5 mg/kg of 4-AP or 3,4-DAP (Foldes, et al., Anesthesiology 57:A-273, 1982). The time of onset and duration of the loss of righting reflex (LRR) was observed.

[3] = test system: anticholinesterase activity; settings: background; cited from earlier work
neuromuscular blocks = settings: background; Bowman and Savage 1981; Agoston et al. 1978; cited from earlier work
[4] = background; Marshall 1982; cited from earlier work
[5] = molar basis, nondepolarizing muscle relaxants
[6] = neuromuscular blocks induced by curare

| Compound | ED50 ([1]; muscle relaxant Pancuronium) [mg/kg] | ED50 ([1]; muscle relaxant d-Tubocurarine) [mg/kg] | Relative Molar Potency, In Vivo ([1]; muscle relaxant Pancuronium) | Relative Molar Potency, In Vivo ([1]; muscle relaxant d-Tubocurarine) | Relative Molar Potency, In Vitro ([2]; muscle relaxant Pancuronium) | Relative Molar Potency, In Vitro ([2]; muscle relaxant d-Tubocurarine) | Loss of righting reflex, Onset (central nervous system) [min] | Loss of righting reflex, Duration (central nervous system) [min] | effect on pentobarbital induced LRR / barbiturate CNS effects (in words) (central nervous system) | further results |
| --- | --- | --- | --- | --- | --- | --- | --- | --- | --- | --- |
| Nc1ccncc1N [3,4-Diaminopyridine, 3,4-diaminopyridine, reference compound] | 0.18 | 0.12 | 0.8 | 1.6 | 2.7 | 2.1 | 13.3 | 78.9 | – | – |
| Nc1ccncc1 [4-Aminopyridine, 4-aminopyridine, reference compound] | 0.13 | 0.17 | – | – | – | – | 15.2 | 42.0 | significantly (p<0.001) reduce the central nervous system effects of barbiturates | anticholinesterase activity (in words) [3]: no anticholinesterase activity; reversal of muscle relaxants and antagonism of other neuromuscular blocks (in words) (neuromuscular blocks): not only reverse the side effects of clinically used muscule relaxants, but also antagonize the effects of the other neuromuscular blocks listed above; undesirable side effects (in words) [4]: elevated blood pressure, anxiety, insomnia, and a level of central nervous system stimulation which may manifest itself ultimately in convulsions |
| CN(C)C(=O)Nc1cnccc1N [LF-14, 1,1-Dimethyl-3-(4-amino-3-pyridyl)-urea] | 0.04 | 0.04 | 8.2 | 9 | 17 | 17 | 12.4 | 75.7 | substantially no effect on the pentobarbital induced LRR | neuromuscular potency / antagonism (in words), in vivo [1, 5]: greatest both in vitro and in vivo; molar potency relative to 4-AP, in vivo [1, 6]: 9 times that of 4-AP; neuromuscular potency / antagonism (in words), in vitro [2, 5]: greatest both in vitro and in vivo; molar potency relative to 4-AP, in vitro [2, 6]: 17 times that of 4-AP; stimulatory effects on the central nervous system (in words) (central nervous system; rat, in vivo): no stimulatory effects on the central nervous system |
| 1,1-dimethyl-(3,4-pyridyl)-urea [LF-10] | – | – | 2.3 | 7.5 | 3.4 | 4.3 | 14.8 | 63.7 | some effect on shortening the duration of LRR | ED 50 of Antagonists, In Vivo ([1]; muscle relaxant Pancuronium): 0.13 + 0.00 mg/Kg; ED 50 of Antagonists, In Vivo ([1]; muscle relaxant d-Tubocurarine): 0.09 + 0.00 mg/Kg; ED 50 of Antagonists, In Vitro ([2]; muscle relaxant Pancuronium): 0.5; ED 50 of Antagonists, In Vitro ([2]; muscle relaxant d-Tubocurarine): 0.4 |
